Laboratory results reported in patent US20240216248A1, “MICROBIAL GLYCOLIPIDS” (ANALYTICON DISCOVERY GMBH, priority 2021, published 2024).
Converted amounts (≈) assume the structure as drawn. Blank lines part the entries; values can stand above or below the compound they belong to.

Legend:
[1] = Emulsification index E24; type: physicochemical; conditions: surfactant solution 100 mg/liter; 2 ml hexadecane to 4 ml aqueous sample; measured 24 h later
Experimental: The emulsification index was determined by using a modification of a method described by Cooper and Goldenberg (APPLIED AND ENVIRONMENTAL MICROBIOLOGY, February 1987. p. 224-229). Surfactant solutions were prepared at 100 mg/liter. Emulsifier activity was measured by adding 2 ml of hexadecane to 4 ml of aqueous sample and vortexing at high speed for 1 min. Measurements were made 24 h later. The emulsion index (E24) was calculated using the equation E24(%)=[(height of emulsion layer)/(total height)]×100. Lutensol […] was used as positive control.

[2] = system: Penicillium roquefortii; experiment: Antimicrobial activity, micro broth dilution assay; type: cell-based
Experimental: (§1) The antimicrobial activity of selected compounds was determined by micro broth dilution assay.

[3] = system: Aspergillus montevidensis; experiment: Antimicrobial activity, micro broth dilution assay; type: cell-based
Experimental: as §1

[4] = system: Leuconostoc carnosum; experiment: Antimicrobial activity, micro broth dilution assay; type: cell-based
Experimental: as §1

[5] = system: Zygosaccharomyces bailii; experiment: Antimicrobial activity, micro broth dilution assay; type: cell-based
Experimental: as §1

[6] = system: Latilactobacillus sakei; experiment: Antimicrobial activity, micro broth dilution assay; type: cell-based
Experimental: as §1

[7] = system: Penicillium expansum; experiment: Antimicrobial activity, micro broth dilution assay; type: cell-based
Experimental: as §1

[8] = system: Pseudomonas aeruginosa; experiment: Antimicrobial activity, micro broth dilution assay; type: cell-based
Experimental: as §1

[9] = system: Neosartorya sp.; experiment: Antimicrobial activity, micro broth dilution assay; type: cell-based
Experimental: as §1

[10] = system: Saccharomyces cerevisiae; experiment: Antimicrobial activity, micro broth dilution assay; type: cell-based
Experimental: as §1

[11] = system: Staphylococcus aureus; experiment: Antimicrobial activity, micro broth dilution assay; type: cell-based
Experimental: as §1

[12] = system: Bacillus subtilis; experiment: Antimicrobial activity, micro broth dilution assay; type: cell-based
Experimental: as §1

[13] = system: Penicillium chrysogenum; experiment: Antimicrobial activity, micro broth dilution assay; type: cell-based
Experimental: as §1

[14] = system: Penicillium paneum; experiment: Antimicrobial activity, micro broth dilution assay; type: cell-based
Experimental: as §1

[15] = system: Escherichia coli; experiment: Antimicrobial activity, micro broth dilution assay; type: cell-based
Experimental: as §1

[16] = system: Candida parapsilosis; experiment: Antimicrobial activity, micro broth dilution assay; type: cell-based; conditions: Lodderomyces parapsilosis
Experimental: as §1

[17] = system: Aspergillus ruber; experiment: Antimicrobial activity, micro broth dilution assay; type: cell-based
Experimental: as §1

[18] = system: Byssochlamys nivea; experiment: Antimicrobial activity, micro broth dilution assay; type: cell-based; conditions: Paecilomyces niveus
Experimental: as §1

[19] = system: Brettanomyces sp; experiment: Antimicrobial activity, micro broth dilution assay; type: cell-based
Experimental: as §1

SMILES: CC(O)C(CCCCCCCCCCCCCCCCC(O)C(C)NCC(=O)O)OC1OC(CO)C(O)C(O)C1O (stereo not drawn) [C]
E24 index [1]: 100%

SMILES: CC(O)C(CCCCCCCCCCCCCCCCC(O)C(C)NC=O)OC1OC(CO)C(O)C(O)C1O (stereo not drawn) [Compound E]
E24 index [1]: 65%

SMILES: CC(O)C(CCCCCCCCCCCCCCCCC(O)C(C)OC1OC(CO)C(O)C(O)C1O)OC1OC(CO)C(O)C(O)C1O (stereo not drawn) [D]
E24 index [1]: 90%

SMILES: CC(O)C(CCCCCCCCCCCCCCCCC(O)C(C)NC(=O)CCC(=O)O)OC1OC(CO)C(O)C(O)C1O (stereo not drawn) [H]
E24 index [1]: 94%

SMILES: CC(N)C(O)/C=C/CCCCCCCCCCCCCCC(OC1OC(CO)C(O)C(O)C1O)C(C)O (stereo not drawn) [J]
E24 index [1]: 96%

Next, values leading:

E24 index [1]: 99%
MIC [2]: 250 µg/mL (≈ 467 µM)
MIC [3]: 500 µg/mL (≈ 933 µM)
MIC [4]: > 500 µg/mL
MIC [5]: 125 µg/mL (≈ 233 µM)
MIC [6]: 500 µg/mL (≈ 933 µM)
MIC [7]: 250 µg/mL (≈ 467 µM)
MIC [8]: 250 µg/mL (≈ 467 µM)
MIC [9]: 125 µg/mL (≈ 233 µM)
MIC [10]: 125 µg/mL (≈ 233 µM)
MIC [11]: 250 µg/mL (≈ 467 µM)
MIC [12]: 250 µg/mL (≈ 467 µM)
MIC [13]: 125 µg/mL (≈ 233 µM)
MIC [14]: 500 µg/mL (≈ 933 µM)
MIC [15]: 600 µg/mL (≈ 1120 µM)
MIC [16]: 250 µg/mL (≈ 467 µM)
MIC [17]: 500 µg/mL (≈ 933 µM)
MIC [18]: 500 µg/mL (≈ 933 µM)
MIC [19]: 125 µg/mL (≈ 233 µM)
SMILES: CC(N)C(O)CCCCCCCCCCCCCCCCC(OC1OC(CO)C(O)C(O)C1O)C(C)O (stereo not drawn) [B]

E24 index [1]: 95%
MIC [2]: 125 µg/mL (≈ 246 µM)
MIC [3]: 250 µg/mL (≈ 492 µM)
MIC [4]: 500 µg/mL (≈ 985 µM)
MIC [5]: 125 µg/mL (≈ 246 µM)
MIC [6]: 125 µg/mL (≈ 246 µM)
MIC [7]: 250 µg/mL (≈ 492 µM)
MIC [8]: 600 µg/mL (≈ 1180 µM)
MIC [9]: 500 µg/mL (≈ 985 µM)
MIC [10]: 250 µg/mL (≈ 492 µM)
MIC [11]: 250 µg/mL (≈ 492 µM)
MIC [12]: 250 µg/mL (≈ 492 µM)
MIC [13]: 125 µg/mL (≈ 246 µM)
MIC [14]: 250 µg/mL (≈ 492 µM)
MIC [15]: 600 µg/mL (≈ 1180 µM)
MIC [16]: 500 µg/mL (≈ 985 µM)
MIC [17]: 125 µg/mL (≈ 246 µM)
MIC [18]: > 500 µg/mL
MIC [19]: 500 µg/mL (≈ 985 µM)
SMILES: CC(N)C(O)CCCCCCCCCCCCCCC(OC1OC(CO)C(O)C(O)C1O)C(C)O (stereo not drawn) [Compound A]

E24 index [1]: 95%
SMILES: CC(N)C(O)C(O)CCCCCCCCCCCCCCCC(OC1OC(CO)C(O)C(O)C1O)C(C)O (stereo not drawn) [Compound I]

E24 index [1]: 100%
SMILES: CC(O)C(O)CCCCCCCCCCCCCCCCC(OC1OC(CO)C(O)C(O)C1O)C(C)O (stereo not drawn) [F]
